Measurements taken from patent publication US4031218A, “7-(2,3-Dihydroxypropyl-1,3-di-n-propylxanthine and a pharmaceutical composition containing same useful as a bronchial muscle relaxant” (Mallinckrodt, Inc., priority 1976, dated 1977).
≈ marks a conversion by molar mass, not a printed value.

Experiments:
[1] = Intravenous emetic study in dogs (ED50); assay type: in vivo, dog; conditions: dog, in vivo, iv; read-out: ED50 (median emetic dose), I.V. Dogs
Procedure: (§1) Twelve adult mongrel dogs of either sex were employed to determine the median emetic dose (ED50) of all five experimental compounds after intravenous administration. […] Onset, frequency, and duration of emetic episodes were also recorded. The dogs were not fasted, were allowed at least 2 days rest between doses, and no animal received the same compound twice in succession. […] ED50 values were calculated according to the method of Litchfield and Wilcoxon (1949).

dogs [2] = test: Intravenous emetic study in dogs (ED50); assay type: in vivo, dog; conditions: for Emetic effect, I.V. Dogs: estimated at HBD; for I.V. Emetic (Dogs), relative molar activity: relative to theophylline, molar basis
Procedure: as §1

[3] = Acute toxicity and side effects; conditions: compared with theophylline
dogs [4] = test: Oral minimum emetic dose in dogs; assay type: in vivo, dog; conditions: for Emetic effect, P.O. Dogs: estimated at HBD; for Oral Emetic (Dogs), relative molar activity: relative to theophylline, molar basis
Procedure: 2. Oral Minimum Emetic Dose
The minimum dose of each compound which causes emesis after oral administration was estimated in a group of five adult mongrel dogs of either sex. Logarithmically increasing or decreasing (depending upon response) doses of each compound were administered orally via a flexible stomach tube. The compounds were dissolved in distilled water in concentrations to allow a constant volume dose of 5 ml/kg. […] Onset, frequency, and duration of emetic episodes as well as signs of CNS stimulation were also recorded.

Solubility = conditions: for Solubility in words: water solubility, qualitative
dogs [5] = test: Acute intravenous diuretic evaluation in dogs; conditions: for Diuretic Activity, I.V. Dogs: estimated at HBD; for I.V. Diuretic (Dogs), relative molar activity: relative to theophylline, molar basis
Procedure: Acute Intravenous Evaluation in Dogs
Compounds were tested in two dogs each. Animals were initially hydrated with 30 ml/kg of water, orally; then anesthetized with pentobarbital sodium, 30-35 mg/kg i.v. One femoral vein was cannulated and a constant intravenous infusion of warm saline (3 ml/min.) was begun and continued throughout the experiment. The contralateral femoral vein was also cannulated for intravenous drug administration. Urine was directly collected from bilateral ureter cannulae. After a 20-minute control collection period, the first dose of the appropriate compound was injected and urine was collected at 20-minute intervals for a period of one hour. This procedure was repeated for two additional doses of the same compound. Urine volume, pH, and sodium and potassium levels were determined for each 20-minute collection period and sums were obtained for the one-hour period after each dose. Test results, reported as successive changes in each parameter, were compared accordingly.

mice = test: Voluntary motor activity in mice (CNS stimulation); assay type: in vivo, male albino Swiss mice; conditions: for CNS Activity, I.P. Mice / CNS Activity, I.P. Mice, change: estimated at HBD; for I.P. CNS Stimulation (Mice), relative molar activity: relative to theophylline, molar basis; for CNS Activity, I.P. Mice, change: voluntary motor activity
Procedure: F. Voluntary Motor Activity Studies in Mice In an attempt to quantitatively assess central nervous system activity, each compound was evaluated for its influence on voluntary motor activity in mice according to the method described by Dews (British J. Pharmacol. 8:46, 1953). Three cylindrical actophotometer cages were utilized simultaneously, each with six light beams and six photoelectric cells. Individual digital counters were connected to each activity cage. Male albino Swiss mice with weights ranging between 19 and 24 gm were used throughout. Compounds were dissolved in distilled water and were injected intraperitoneally in logarithmically spaced doses to groups of five mice, three groups per dose level. Control groups received saline.

[6] = Summary of relative molar activities (means and therapeutic efficacy); conditions: for Therapeutic Efficacy: mean bronchodilator (therapeutic) activity divided by mean acute toxic and side effect activity; for Mean acute toxicity and side effect activity (relative molar): mean of acute toxicity and side effect lines of Table I; for Mean acute toxicity and side effect activity (relative molar) / Mean bronchodilator activity (relative molar): relative to theophylline; for Mean bronchodilator activity (relative molar): mean of bronchodilator lines of Table I
Text: ^g - Mean bronchodilator (therapeutic) activity divided by mean acute

dogs [7] = test: Intravenous cardiovascular evaluation in dogs; conditions: for CF (coronary flow) change / CO (cardiac output) change / CW (cardiac work) change / HR (heart rate) change / MAP (mean arterial pressure) change / MCF (myocardial contractile force) change / TPR (total peripheral resistance) change / Cardiovascular effects (Mean): i.v. dogs, estimated at HBD; for I.V. Cardiovascular (Dogs), mean relative molar activity: mean for arterial pressure, heart rate, contractile force, cardiac output, stroke volume, cardiac work, TPR, coronary flow and resistance, relative to theophylline; for Cardiovascular effects (Mean): mean of the cardiovascular changes
Procedure: Intravenous Cardiovascular Evaluation in Dogs
Thirteen adult mongrel dogs of either sex ranging in weight from 16.7 to 25.0 kg were employed to compare the overall intravenous cardiovascular activity of the five experimental compounds.
Dogs were anesthetized with pentobarbital sodium, 30-35 mg/kg i.v., fitted with a cuffed endotracheal tube, and ventilated with a Harvard Animal Respiratory Pump. A femoral vein was cannulated for i.v. drug administration. The left common carotid artery was cannulated and the cannula tip advanced into the aortic arch. A median sternotomy was performed and appropriately sized electromagnetic blood flow transducers (Biotronex) were placed around the ascending aorta and left anterior descending coronary artery. These procedures allowed continuous recording or calculation of the following parameters:
a. Mean Arterial Pressure (MAP); from the aortic cannula.
b. Heart Rate (HR); electronically from pulsatile ascending aortic flow.
c. Cardiac Output (CO); mean ascending aortic flow.
d. Myocardial Contractile Force (MCF); dQ/dt, the first derivative of maximum aortic flow rate, also known as peak aortic flow acceleration.
e. Stroke Volume (SV); quotient of CO/HR.
f. Cardiac Work (CW); product of CO X MAP.
g. Total Peripheral Resistance (TPR); quotient of MAP/CO.
h. Coronary Flow (CF); mean left anterior descending (LAD) coronary flow.
i. Coronary Resistance (CR); quotient of MAP/CF.
Logarithmically increasing doses of the appropriate compound were injected at 20-minute intervals. Responses were measured at 1, 2, 5, 10, 15 and 20 minutes after each dose and the average response during that period was calculated. Theophylline (aminophylline), dyphylline (II), and Compound V were employed in both 20 and 80 mg/ml concentrations in distilled water. Compounds III and IV were used in 10 and 30 mg/ml concentrations respectively.

rats = test: Acute oral diuretic evaluation in rats; assay type: in vivo, Sprague Dawley rats; conditions: relative to theophylline, molar basis
Procedure: 1. Acute Oral Evaluation in Rats
The oral diuretic effect of each compound was estimated in rats by a modification of the method described by Lipschitz et al. (J. Pharmacol. Exp. Ther. 79:97, 1943). Male Sprague Dawley rats (Carworth) weighing between 153 and 220 gms were fasted overnight. Groups of five animals each were administered three appropriate logarithmically spaced doses of each compound dissolved in saline in a constant volume dose of 25 ml/kg via an oral feeding needle. Controls received the same dose of only saline. The rats were then placed in individual metabolism cages and deprived of food and water for the remainder of the experiment. At the end of six hours, each rat was forced to expel urine in the bladder by pulling on the base of the tail. Parameters measured included urine volume, pH, and sodium and potassium excretion as measured by atomic absorption analysis. Six hour values were averaged for each dose of compound and for controls and were compared accordingly.

Bronchodilator activity = conditions: compared with theophylline
dog hind limb = test: Dog hind limb perfusion preparation (vasodilator); assay type: in vivo; conditions: intra-arterial; relative to theophylline, molar basis
Text: 1. Dog Hind Limb Perfusion Preparation
A total of 12 adult mongrel dogs of either sex were used to assess the direct intra-arterial dilating capacity of the five experimental compounds. […] This was accomplished with a Harvard Variable Speed Peristaltic Pump after proximal and distal cannualtion of the femoral artery. Changes in arterial vascular resistance were reflected as changes in perfusion pressure as measured from a T-tube on the distal side of the pump. Mean systemic arterial pressure was also recorded from the contralateral femoral artery. Drug solutions, dissolved in saline, were injected into the arterial blood supply immediately prior to entering the cannulated distal artery. Logarithmically increasing doses were given at 10-minute intervals and responses were recorded.

human bronchodilator = test: Estimated human bronchodilator dose equivalent to recommended theophylline dose; conditions: based on recommended theophylline dose and relative bronchodilator activities
Text: Experimental results are summarized in Table I wherein pharmacologic and toxicologic activities relative to that of theophylline are expressed on a molar basis.
^a - Dose: Based on the recommended dose for theophylline and the
relative activities in the bronchodilator experiments.

[8] = prior art statement; cited from earlier work

Structure (SMILES)	ED50 [1]	Emetic effect, I.V. Dogs (dogs [2])	I.V. Emetic (Dogs), relative molar activity (dogs [2])	MED (minimum emetic dose), P.O. Dogs (dogs [4])	Emetic effect, P.O. Dogs (dogs [4])	Oral Emetic (Dogs), relative molar activity (dogs [4])	solubility (Solubility; water)	Diuretic Activity, I.V. Dogs (dogs [5])	I.V. Diuretic (Dogs), relative molar activity (dogs [5])	I.P. CNS Stimulation (Mice), relative molar activity (mice)	Therapeutic Efficacy [6]	Mean acute toxicity and side effect activity (relative molar) [6]	Mean bronchodilator activity (relative molar) [6]	CF (coronary flow) change (dogs [7])	CO (cardiac output) change (dogs [7])	CW (cardiac work) change (dogs [7])	HR (heart rate) change (dogs [7])	MAP (mean arterial pressure) change (dogs [7])	MCF (myocardial contractile force) change (dogs [7])	TPR (total peripheral resistance) change (dogs [7])	further results
CCCn1c(=O)c2c(ncn2CC(O)CO)n(CCC)c1=O (stereo not shown) [Compound V, 7-(2,3-dihydroxypropyl)-1,3-di-n-propylxanthine]	53 mg/kg	None	1.91	442 mg/kg	None	0.50	100 mg/mL (≈ 322 mM)	Mild	0.59	0.30	2.51	0.70	1.76	+17 %Δ	+6 %Δ	+2 %Δ	+7 ΔBPM	-5 ΔmmHg	+15 %Δ	-9 %Δ	Acute toxicity, emetic, cardiovascular, CNS and diuretic effects in words [3]: less active in regard to acute toxicity as well as undesirable cardiovascular, CNS, diuretic and oral emetic effects; solubility (Solubility; chloroform, organic solvent or mixture): ~310 mg/mL (≈ 999 mM); Solubility in words (Solubility): considerably more water soluble than theophylline; CNS Activity, I.P. Mice (mice): None; CNS Activity, I.P. Mice, change (mice): -1 %Δ; I.V. Cardiovascular (Dogs), mean relative molar activity (dogs [7]): 0.91; Cardiovascular effects (Mean) (dogs [7]): 9; Oral Diuretic (Rats), relative molar activity (rats): 1.05; Bronchodilator potency in words (Bronchodilator activity): comparable to theophylline as a bronchodilator; Vasodilator, HLPP (Dogs), relative molar activity (dog hind limb): 0.40; Estimated Human Bronchodilator Dose (HBD), per 70 kg (human bronchodilator): 299 mg/70 kg; Estimated Human Bronchodilator Dose (HBD), per kg (human bronchodilator): 4.3 mg/kg
CCCn1c(=O)c2c(ncn2CCCO)n(CCC)c1=O [IV, 7-(3-hydroxypropyl)-1,3-di-n-propylxanthine]	7.5 mg/kg	Moderate	12.88	33 mg/kg	None	6.00	30 mg/mL (≈ 102 mM)	Mild	0.45	0.48	0.72	2.60	1.87	+4 %Δ	+2 %Δ	-26 %Δ	+80 ΔBPM	-25 ΔmmHg	+20 %Δ	-5 %Δ	Acute toxicity, emetic, cardiovascular, CNS and diuretic effects in words [3]: increased undesirable emetic, cardiovascular and central nervous system (CNS) effects; Solubility in words (Solubility): low solubilities; Side effects / tolerance in words (prior art) [8]: well tolerated; CNS Activity, I.P. Mice (mice): Moderate; CNS Activity, I.P. Mice, change (mice): -17 %Δ; I.V. Cardiovascular (Dogs), mean relative molar activity (dogs [7]): 2.02; Cardiovascular effects (Mean) (dogs [7]): 23; Oral Diuretic (Rats), relative molar activity (rats): 1.48; Bronchodilator potency in words (Bronchodilator activity): more potent bronchodilators than theophylline; Vasodilator, HLPP (Dogs), relative molar activity (dog hind limb): 1.06; Estimated Human Bronchodilator Dose (HBD), per 70 kg (human bronchodilator): 347 mg/70 kg; Estimated Human Bronchodilator Dose (HBD), per kg (human bronchodilator): 5.0 mg/kg
Cn1c(=O)c2c(ncn2CC(O)CO)n(C)c1=O (stereo not shown) [Compound II, 7-(2,3-dihydroxypropyl) 1,3-dimethylxanthine]	900 mg/kg	None	0.09	> 362 mg/kg	None	< 0.50	330 mg/mL (≈ 1300 mM)	Moderate	0.26	0.18	2.31	0.26	0.60	+10 %Δ	-15 %Δ	-30 %Δ	+11 ΔBPM	-20 ΔmmHg	-5 %Δ	+3 %Δ	Side effects / tolerance in words (prior art) [8]: few of the usual theophylline-like side effects; I.V. Cardiovascular (Dogs), mean relative molar activity (dogs [7]): 0.36; Cardiovascular effects (Mean) (dogs [7]): 13; Oral Diuretic (Rats), relative molar activity (rats): 0.71; Vasodilator, HLPP (Dogs), relative molar activity (dog hind limb): 0.06; Estimated Human Bronchodilator Dose (HBD), per 70 kg (human bronchodilator): 2353 mg/70 kg; Estimated Human Bronchodilator Dose (HBD), per kg (human bronchodilator): 33.6 mg/kg
